The results in this text go back to patent US20060019977A1, “Spiroheterocyclic derivative compounds and drugs comprising the compound as the active ingredient” (ONO PHARMACEUTICAL CO., LTD., priority 2002, published 2006).

In general, IC50 refers to the point on the concentration scale where inhibition reaches its midpoint.

The target in this experiment is T1, human CCR5 (Homo sapiens, UniProt P51681).
T1 construct: expressed in transfected cells
The experiment can be described thus: Inhibition test on the binding of RANTES to CCR5 (RANTES-induced transient increase of Ca ion in CCR5/CHO cells). Format: cell-based. Particulars: human CCR5 stably over-expressing CHO cells; 10 nM recombinant human RANTES; Ca2+ transient increase (Fura-2AM). The method, then:
Specifically, e.g., since CCR5 is a G protein-coupled seven transmembrane type receptor, an assay system in which the effect of RANTES on the transient increase of Ca ion induced via CCR5 is measured can be carried out as an assay system for screening a compound capable of inhibiting binding of RANTES to CCR5. Since both of the T cell tropic (X4) HIV and SDF-1 bind to CXCR4, similar idea can be considered.
(1) Isolation of Human CCR5 Gene
Human placental cDNA was prepared using Marathon cDNA amplification kit (Clontech). PCR primers hCCR5XbaI-F1: • 5′-[…]-3′ (SEQ ID NO:1) and hCCR5XbaI-R1: • 5′-[…]-3′ (SEQ ID NO:2) were designed based on the sequence of GenBank U54994. […]
The thus established human CCR5 stably over-expressing CHO cell (CCR5/CHO cell) was suspended in Ham's F-12 medium containing FBS (10%) and dispensed in […] portions into a 96 well plate. […] Transient increase in the intracellular Ca^2+ concentration induced by the human RANTES was measured using a Ca^2+ detector for 96 well use (Hamamatsu Photonics), and inhibition ratio (%) of the test compound was calculated by the following calculation formula. Inhibition ratio=(Ec−Ea)/Ec×100 • Ec: measured value of Ca^2+ transient increase by RANTES • Ea: measured value of Ca^2+ transient increase by RANTES when a test compound was added

Structures can show the parent of a compound that is named as a salt.

T1 sequence (P51681 whole entry): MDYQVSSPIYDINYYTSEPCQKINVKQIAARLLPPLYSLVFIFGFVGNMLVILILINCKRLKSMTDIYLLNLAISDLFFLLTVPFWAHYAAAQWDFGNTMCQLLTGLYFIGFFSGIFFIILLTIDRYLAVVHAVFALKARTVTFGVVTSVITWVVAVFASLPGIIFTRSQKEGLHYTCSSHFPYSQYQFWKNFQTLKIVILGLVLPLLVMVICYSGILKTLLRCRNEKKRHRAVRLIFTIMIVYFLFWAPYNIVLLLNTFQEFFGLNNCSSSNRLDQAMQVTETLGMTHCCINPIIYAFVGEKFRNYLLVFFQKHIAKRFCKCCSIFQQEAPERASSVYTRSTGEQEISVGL

`CCCCN1C(=O)[C@@H]2CSCN2C(=O)C12CCN(Cc1ccc(Oc3ccccc3)cc1)CC2` [Example 1(1), (3R)-1-butyl-2,5-dioxo-3,4-(2-thiapropano)-9-[(4-phenoxyphenyl)methyl]-1,4,9-triazaspiro[5.5]undecane hydrochloride]: the IC50 was found to be 740 nM.
For the compound `CCCCN1C(=O)C2(CCCC2)NC(=O)C12CCN(Cc1ccc(Oc3ccc(C(=O)NC)cc3)cc1)CC2` [Example 5, 1-butyl-2,5-dioxo-3,3-butano-9-[4-(4methylcarbamoylphenoxy)benzyl]-1,4,9-triazaspiro[5.5]undecane hydrochloride], the 50% inhibitory concentration (IC50) is 12 nM.
